ChEMBL document CHEMBL1144693, “Botryolides A-E, decarestrictine analogues from a fungicolous Botryotrichum sp. (NRRL 38180)” (J Nat Prod, 2008)
Calls of active or inactive are those of the source.

Tests used:
Type in all cases: functional, organism-based
[1] = tested on: Bacillus subtilis; test: Antibacterial activity against Bacillus subtilis ATCC 6051 at 100 ug/disk
[2] = tested on: Candida albicans; test: Antifungal activity against Candida albicans ATCC 14053 at 100 ug/disk
[3] = tested on: Aspergillus flavus; test: Antifungal activity against Aspergillus flavus NRRL 6541 at 100 ug/disk
[4] = tested on: Fusarium verticillioides; test: Antifungal activity against Fusarium verticillioides NRRL 25457 at 100 ug/disk
[5] = tested on: Staphylococcus aureus; test: Antibacterial activity against Staphylococcus aureus ATCC 25923 at 100 ug/disk

Measured: Activity

C[C@@H]1C[C@@H]2O[C@@H]2/C=C/[C@H](O)CC(=O)O1
inactive: [1] | [2] | [3] | [4] | [5]

C[C@@H]1C[C@H](O)C(=O)CCC(O)CC(=O)O1 (stereo partly drawn)
inactive: [1] | [2] | [3] | [4] | [5]

C[C@@H]1C[C@@H]2O[C@@H]2[C@H]2O[C@@H]2[C@@H](O)CC(=O)O1
inactive: [1] | [2] | [3] | [4] | [5]

C[C@@H]1C[C@@H]2O[C@@H]2/C=C/[C@]2(CC(=O)O1)C[C@@H](O)C(=O)O2
inactive: [1] | [2] | [5]
